The target in experiment [1] is T1, HiBit-BRG1 fusion protein (Homo sapiens, UniProt P51532).
T1 construct: expressed in transfected cells
The experiment can be described thus: HiBiT-BRG1 cell-based degradation assay (Nano-Glo HiBiT Lytic Detection, 24 h). The settings on record: HeLa cell line expressing HiBit-BRG1 and LgBit; for Dmax: read-out: BRG1 HiBit Degradation Maximum (%); for DC50: read-out: BRMG1 HiBit Degradation IC50. The procedure, abridged:
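Percent degradation derived from lytic HiBiT signal, normalized to DMSO-treated cells and to cells given 2 μM of a known BRM/BRG1 degrader. The HeLa line stably expressed HiBit-BRG1 and LgBit; treatment lasted 24 h at 5000 cells per well.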

For experiment [2], the target named is T2, HiBit-BRM fusion protein (Homo sapiens, UniProt P51531).
T2 construct: expressed in transfected cells
T2 sequence (P51531 whole entry, the tested form may be a part): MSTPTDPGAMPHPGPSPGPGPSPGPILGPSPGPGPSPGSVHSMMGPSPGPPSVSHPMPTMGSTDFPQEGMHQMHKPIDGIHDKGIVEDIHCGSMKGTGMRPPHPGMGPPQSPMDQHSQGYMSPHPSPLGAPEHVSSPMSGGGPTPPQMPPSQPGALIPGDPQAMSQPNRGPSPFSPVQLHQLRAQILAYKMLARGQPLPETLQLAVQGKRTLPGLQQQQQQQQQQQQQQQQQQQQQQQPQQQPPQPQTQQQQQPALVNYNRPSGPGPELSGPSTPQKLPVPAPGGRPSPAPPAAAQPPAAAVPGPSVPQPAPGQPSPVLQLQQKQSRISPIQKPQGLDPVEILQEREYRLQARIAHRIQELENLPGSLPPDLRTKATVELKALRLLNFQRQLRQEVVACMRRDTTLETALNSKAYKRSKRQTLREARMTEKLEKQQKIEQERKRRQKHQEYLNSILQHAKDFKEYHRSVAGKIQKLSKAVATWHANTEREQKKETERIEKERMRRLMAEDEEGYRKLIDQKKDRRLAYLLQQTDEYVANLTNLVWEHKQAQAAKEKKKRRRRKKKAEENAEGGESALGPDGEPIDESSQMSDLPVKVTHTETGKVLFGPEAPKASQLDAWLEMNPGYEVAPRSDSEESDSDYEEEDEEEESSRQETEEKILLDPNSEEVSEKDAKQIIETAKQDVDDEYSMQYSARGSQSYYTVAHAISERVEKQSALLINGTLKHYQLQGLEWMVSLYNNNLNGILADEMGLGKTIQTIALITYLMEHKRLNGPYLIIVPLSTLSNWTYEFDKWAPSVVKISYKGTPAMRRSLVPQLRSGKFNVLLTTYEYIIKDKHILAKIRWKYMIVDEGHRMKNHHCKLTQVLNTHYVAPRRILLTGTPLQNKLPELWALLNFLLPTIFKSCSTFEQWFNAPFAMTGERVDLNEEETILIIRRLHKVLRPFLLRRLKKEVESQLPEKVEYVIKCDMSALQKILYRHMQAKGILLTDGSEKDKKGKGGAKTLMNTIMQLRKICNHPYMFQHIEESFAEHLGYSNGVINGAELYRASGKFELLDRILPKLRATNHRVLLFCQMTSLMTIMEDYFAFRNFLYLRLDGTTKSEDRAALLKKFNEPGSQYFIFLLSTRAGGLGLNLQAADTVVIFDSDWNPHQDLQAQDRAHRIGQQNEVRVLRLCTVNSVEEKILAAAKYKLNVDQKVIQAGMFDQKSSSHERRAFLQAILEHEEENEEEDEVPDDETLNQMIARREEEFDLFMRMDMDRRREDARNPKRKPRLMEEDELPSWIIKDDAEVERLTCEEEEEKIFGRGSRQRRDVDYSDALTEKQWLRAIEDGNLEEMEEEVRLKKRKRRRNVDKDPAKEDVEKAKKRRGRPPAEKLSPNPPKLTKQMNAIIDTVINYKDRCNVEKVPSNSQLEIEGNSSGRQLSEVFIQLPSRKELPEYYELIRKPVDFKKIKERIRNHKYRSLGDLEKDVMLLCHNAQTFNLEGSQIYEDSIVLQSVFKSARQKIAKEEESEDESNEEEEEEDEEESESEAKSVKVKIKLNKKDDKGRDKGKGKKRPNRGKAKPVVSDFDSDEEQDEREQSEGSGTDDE
The experiment can be described thus: HiBiT-BRM cell-based degradation assay (Nano-Glo HiBiT Lytic Detection, 24 h). Conditions: HeLa cell line expressing HiBiT-BRM; for DC50: read-out: BRM HiBit Degradation IC50. The method, boiled down: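 Percent BRM loss was derived from HiBiT luminescence relative to DMSO-treated cells and cells given 2 μM of a known BRM/BRG1 degrader. Treatment lasted 24 h in HiBiT-BRM HeLa cells, with a top final concentration of 30 μM.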
(In general: The HiBiT peptide binds its large partner to form an active luciferase.)

Each structure is given as a SMILES string.

T1 sequence (P51532 whole entry, the tested form may be a part): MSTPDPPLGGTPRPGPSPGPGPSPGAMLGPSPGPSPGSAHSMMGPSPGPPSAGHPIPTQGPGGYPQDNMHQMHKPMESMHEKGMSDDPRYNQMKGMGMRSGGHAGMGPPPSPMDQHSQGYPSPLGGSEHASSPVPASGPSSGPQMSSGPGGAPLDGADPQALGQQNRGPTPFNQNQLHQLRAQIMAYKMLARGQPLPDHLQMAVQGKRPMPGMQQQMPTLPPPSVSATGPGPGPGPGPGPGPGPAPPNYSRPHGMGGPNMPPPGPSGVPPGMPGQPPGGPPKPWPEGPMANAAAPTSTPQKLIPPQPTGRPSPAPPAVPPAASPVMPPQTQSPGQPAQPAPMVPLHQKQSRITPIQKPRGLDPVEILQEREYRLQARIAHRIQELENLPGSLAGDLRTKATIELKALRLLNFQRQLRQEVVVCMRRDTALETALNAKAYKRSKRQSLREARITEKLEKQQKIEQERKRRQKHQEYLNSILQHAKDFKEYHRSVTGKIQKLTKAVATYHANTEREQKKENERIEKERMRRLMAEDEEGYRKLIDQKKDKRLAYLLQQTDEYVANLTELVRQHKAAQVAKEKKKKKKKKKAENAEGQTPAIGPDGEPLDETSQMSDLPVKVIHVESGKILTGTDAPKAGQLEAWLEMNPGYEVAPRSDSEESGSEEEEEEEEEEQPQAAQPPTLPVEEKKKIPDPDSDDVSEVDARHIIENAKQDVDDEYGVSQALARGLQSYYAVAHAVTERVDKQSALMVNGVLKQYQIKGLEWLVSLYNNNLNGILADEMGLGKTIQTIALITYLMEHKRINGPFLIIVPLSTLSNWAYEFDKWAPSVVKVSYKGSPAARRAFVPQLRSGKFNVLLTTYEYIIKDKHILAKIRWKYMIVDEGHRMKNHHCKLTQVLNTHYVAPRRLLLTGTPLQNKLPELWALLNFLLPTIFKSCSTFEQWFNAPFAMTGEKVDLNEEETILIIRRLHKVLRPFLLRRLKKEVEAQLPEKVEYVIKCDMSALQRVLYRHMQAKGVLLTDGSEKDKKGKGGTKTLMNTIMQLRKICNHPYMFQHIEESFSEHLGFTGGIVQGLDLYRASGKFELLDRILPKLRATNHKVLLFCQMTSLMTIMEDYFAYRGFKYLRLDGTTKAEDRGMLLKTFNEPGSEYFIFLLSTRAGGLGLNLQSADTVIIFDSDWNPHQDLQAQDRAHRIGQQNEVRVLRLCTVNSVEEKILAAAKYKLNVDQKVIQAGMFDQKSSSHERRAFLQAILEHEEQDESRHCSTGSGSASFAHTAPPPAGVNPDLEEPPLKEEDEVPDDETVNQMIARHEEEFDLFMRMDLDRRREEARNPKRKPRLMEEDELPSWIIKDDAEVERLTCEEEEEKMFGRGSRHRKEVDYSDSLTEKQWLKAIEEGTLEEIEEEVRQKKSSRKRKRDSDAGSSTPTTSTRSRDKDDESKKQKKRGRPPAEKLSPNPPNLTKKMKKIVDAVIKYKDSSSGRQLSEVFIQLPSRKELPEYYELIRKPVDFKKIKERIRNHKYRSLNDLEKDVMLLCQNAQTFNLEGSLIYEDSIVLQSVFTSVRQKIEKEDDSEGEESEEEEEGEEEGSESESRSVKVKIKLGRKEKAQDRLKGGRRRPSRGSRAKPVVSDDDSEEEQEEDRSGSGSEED

For the molecule `Cc1ncsc1-c1ccc([C@H](C)NC(=O)[C@@H]2C[C@@H](O)CN2C(=O)[C@@H](c2cc(C3CN(C(=O)[C@@H]4CCc5[nH]c6nnc(-c7ccccc7O)cc6c5C4)C3)no2)C(C)C)cc1` (single isomer, unassigned) [Compound 158], in experiment [1], the Dmax was less than 50%. In experiment [2], the “BRM HiBit Degradation Maximum (%)” value was “A (“A” indicates maximum degradation ≥ 75%)” and the DC50 was more than 100 nM.
`Cc1ncsc1-c1ccc(CNC(=O)[C@@H]2C[C@@H](O)CN2C(=O)[C@@H](NC(=O)CCN2CC(c3cc4cc(-c5ccccc5O)nnc4[nH]3)C2)C(C)(C)C)cc1` [Compound 16, (2S,4R)-4-hydroxy-1-((S)-2-(3-(3-(3-(2-hydroxyphenyl)-7H-pyrrolo[2,3-c]pyridazin-6-yl)azetidin-1-yl)propanamido)-3,3-dimethylbutanoyl)-N-(4-(4-methylthiazol-5-yl)benzyl)pyrrolidine-2-carboxamide]: the Dmax in experiment [1] is less than 50%. Moreover, the “BRM HiBit Degradation Maximum (%)” value in experiment [2] is reported as “C (“C” indicates maximum degradation < 50%)”.
For `Cc1ncsc1-c1ccc([C@H](C)NC(=O)[C@@H]2C[C@@H](O)CN2C(=O)[C@H](c2cc(C3CN(C(=O)c4cc5cc(-c6ccccc6O)nnc5[nH]4)C3)no2)C(C)C)cc1` (single isomer, unassigned) [Compound 176] the same measures were less than 50% and “C (“C” indicates maximum degradation < 50%)”.
For the molecule `Cc1ncsc1-c1ccc([C@H](C)NC(=O)[C@@H]2C[C@@H](O)CN2C(=O)[C@@H](c2cc(C3CCN(C(=O)c4cc5cc(-c6ccccc6O)nnc5[nH]4)CC3)no2)C(C)C)cc1` (single isomer, unassigned) [Compound 203], the Dmax in experiment [1] is less than 50%. For the same molecule, in experiment [2], the “BRM HiBit Degradation Maximum (%)” value is listed as “A (“A” indicates maximum degradation ≥ 75%)” and the DC50 is more than 100 nM.
For `Cc1ncsc1-c1ccc([C@H](C)NC(=O)[C@@H]2C[C@@H](O)CN2C(=O)[C@@H](c2cc(OCCN(C)CC34CC(c5cc6cc(-c7ccccc7O)nnc6[nH]5)(C3)C4)no2)C(C)C)cc1` (racemic) [Compound 246, (2S,4R)-4-hydroxy-1-((R)-2-(3-(2-(((3-(3-(2-hydroxyphenyl)-7H-pyrrolo[2,3-c]pyridazin-6-yl)bicyclo[1.1.1]pentan-1-yl)methyl)(methyl)amino)ethoxy)isoxazol-5-yl)-3-methylbutanoyl)-N-((S)-1-(4-(4-methylthiazol-5-yl)phenyl)ethyl)pyrrolidine-2-carboxamide], in experiment [1], the Dmax was more than 75% and the DC50 is more than 100 nM. In experiment [2], the “BRM HiBit Degradation Maximum (%)” value is “A (“A” indicates maximum degradation ≥ 75%)” and the DC50 is more than 10 nM.
In the same order, the values of `Cc1ncsc1-c1ccc([C@H](C)NC(=O)[C@@H]2C[C@@H](O)CN2C(=O)[C@@H](c2cc(OCCN3CCN(CCN4CC(c5cc6cc(-c7ccccc7O)nnc6[nH]5)C4)CC3)no2)C(C)C)cc1` (racemic) [Compound 58, (2S,4R)-4-hydroxy-1-((R)-2-(3-(2-(4-(2-(3-(3-(2-hydroxyphenyl)-7H-pyrrolo[2,3-c]pyridazin-6-yl)azetidin-1-yl)ethyl)piperazin-1-yl)ethoxy)isoxazol-5-yl)-3-methylbutanoyl)-N-((S)-1-(4-(4-methylthiazol-5-yl)phenyl)ethyl)pyrrolidine-2-carboxamide] are more than 75%, more than 100 nM, “A (“A” indicates maximum degradation ≥ 75%)” and more than 100 nM.
Regarding `Cc1ncsc1-c1ccc([C@H](C)NC(=O)[C@@H]2C[C@@H](O)CN2C(=O)[C@@H](c2cc(OCCN3CC(c4cc5cc(-c6ccccc6O)nnc5[nH]4)C3)no2)C(C)C)cn1` (single isomer, unassigned) [Compound 219], in experiment [1], the Dmax was less than 50%. In addition, in experiment [2], the “BRM HiBit Degradation Maximum (%)” value is “A (“A” indicates maximum degradation ≥ 75%)” and the DC50 is more than 100 nM.
As to `Cc1ncsc1-c1ccc(CNC(=O)[C@@H]2C[C@@H](O)CN2C(=O)[C@@H](NC(=O)CCCCCNCCC(=O)N2CC(c3c[nH]c4nnc(-c5ccccc5O)cc34)C2)C(C)(C)C)cc1` (racemic) [Compound 57, (2S,4R)-4-hydroxy-1-((S)-2-(6-((3-(3-(3-(2-hydroxyphenyl)-7H-pyrrolo[2,3-c]pyridazin-5-yl)azetidin-1-yl)-3-oxopropyl)amino)hexanamido)-3,3-dimethylbutanoyl)-N-(4-(4-methylthiazol-5-yl)benzyl)pyrrolidine-2-carboxamide], the Dmax in experiment [1] was less than 50%. Moreover, in experiment [2], the “BRM HiBit Degradation Maximum (%)” value is given as “C (“C” indicates maximum degradation < 50%)”.
As for `Cc1ncsc1-c1ccc([C@H](C)NC(=O)[C@@H]2C[C@@H](O)CN2C(=O)[C@@H](c2cc(OCCCN[C@@H]3CCc4[nH]c5nnc(-c6ccccc6O)cc5c4C3)no2)C(C)C)cc1` (single isomer, unassigned) [Compound 145], the Dmax in experiment [1] was less than 50%. In addition, in experiment [2], the “BRM HiBit Degradation Maximum (%)” value is reported as “A (“A” indicates maximum degradation ≥ 75%)” and the DC50 was more than 100 nM.
Take `Cc1ncsc1-c1ccc([C@H](C)NC(=O)[C@@H]2C[C@@H](O)CN2C(=O)[C@@H](c2cc(OCCNC(=O)[C@H]3CCc4[nH]c5nnc(-c6ccccc6O)cc5c4C3)no2)C(C)C)cc1` (single isomer, unassigned) [Compound 167]: in experiment [1], the Dmax was more than 50% and the DC50 is more than 100 nM. Further, in experiment [2], the “BRM HiBit Degradation Maximum (%)” value is reported as “A (“A” indicates maximum degradation ≥ 75%)” and the DC50 is more than 100 nM.
For the molecule `O=C1CCC(N2C(=O)c3cccc(OCCOCCOCCC(=O)N4CC(c5cc6cc(-c7ccccc7O)nnc6[nH]5)C4)c3C2=O)C(=O)N1` (stereo not drawn) [Compound 23, 2-(2,6-dioxopiperidin-3-yl)-4-(2-(2-(3-(3-(3-(2-hydroxyphenyl)-7H-pyrrolo[2,3-c]pyridazin-6-yl)azetidin-1-yl)-3-oxopropoxy)ethoxy)ethoxy)isoindoline-1,3-dione], the Dmax in experiment [1] was less than 50%. The “BRM HiBit Degradation Maximum (%)” value in experiment [2] is recorded as “C (“C” indicates maximum degradation < 50%)”.
On to `Cc1ncsc1-c1ccc([C@H](C)NC(=O)[C@@H]2C[C@@H](O)CN2C(=O)[C@@H](c2cc(CCN3CC(c4cc5cc(-c6ccccc6O)nnc5[nH]4)C3)no2)C(C)C)cc1` (single isomer, unassigned) [Compound 152], for which, in experiment [1], the Dmax is less than 50%. In experiment [2], the “BRM HiBit Degradation Maximum (%)” value is “B (“B” indicates maximum degradation ≥ 50%)” and the DC50 was more than 100 nM.
For `Cc1ncsc1-c1ccc([C@H](C)NC(=O)[C@@H]2C[C@@H](O)CN2C(=O)C(c2cc(N3CCC(C(=O)N4CC(c5cc6cc(-c7ccccc7O)nnc6[nH]5)C4)CC3)no2)C(C)C)cc1` (mixture of isomers) [Compound 264, (2S,4R)-4-hydroxy-1-((R)-2-(3-(4-(3-(3-(2-hydroxyphenyl)-7H-pyrrolo[2,3-c]pyridazin-6-yl)azetidine-1-carbonyl)piperidin-1-yl)isoxazol-5-yl)-3-methylbutanoyl)-N-((S)-1-(4-(4-methylthiazol-5-yl)phenyl)ethyl)pyrrolidine-2-carboxamide], the Dmax in experiment [1] is less than 50%. Further, the “BRM HiBit Degradation Maximum (%)” value in experiment [2] is “C (“C” indicates maximum degradation < 50%)”.
Consider `Cc1ncsc1-c1ccc([C@H](C)NC(=O)[C@@H]2C[C@@H](O)CN2C(=O)[C@@H](c2cc(N3CCN(C(=O)N4CC(c5cc6cc(-c7ccccc7O)nnc6[nH]5)C4)CC3)no2)C(C)C)cc1` (racemic) [Compound 124, (2S,4R)-4-hydroxy-1-[(2R)-2-[3-(4-{3-[3-(2-hydroxyphenyl)-7H-pyrrolo[2,3-c]pyridazin-6-yl]azetidine-1-carbonyl}piperazin-1-yl)-1,2-oxazol-5-yl]-3-methylbutanoyl]-N-[(1S)-1-[4-(4-methyl-1,3-thiazol-5-yl)phenyl]ethyl]pyrrolidine-2-carboxamide], for which the DC50 in experiment [1] was more than 100 nM. Also, in experiment [2], the “BRM HiBit Degradation Maximum (%)” value is recorded as “A (“A” indicates maximum degradation ≥ 75%)” and the DC50 was more than 10 nM.
`O=C1CCC(N2C(=O)c3cccc(OCCCCC(=O)N4CC(c5cc6cc(-c7ccccc7O)nnc6[nH]5)C4)c3C2=O)C(=O)N1` (stereo not drawn) [Compound 7, 2-(2,6-dioxopiperidin-3-yl)-4-((5-(3-(3-(2-hydroxyphenyl)-7H-pyrrolo[2,3-c]pyridazin-6-yl)azetidin-1-yl)-5-oxopentyl)oxy)isoindoline-1,3-dione]: in experiment [1], the Dmax is more than 50% and the DC50 is more than 1000 nM. For the same molecule, in experiment [2], the “BRM HiBit Degradation Maximum (%)” value is on record as “B (“B” indicates maximum degradation ≥ 50%)” and the DC50 is more than 1000 nM.
As for `Cc1ncsc1-c1ccc([C@H](C)NC(=O)[C@@H]2C[C@@H](O)CN2C(=O)[C@@H](c2cc(N3CCN(CCC(=O)N4CC(c5c[nH]c6nnc(-c7ccccc7O)cc56)C4)CC3)no2)C(C)C)cc1` (racemic) [Compound 251, (2S,4R)-4-hydroxy-1-((R)-2-(3-(4-(3-(3-(3-(2-hydroxyphenyl)-7H-pyrrolo[2,3-c]pyridazin-5-yl)azetidin-1-yl)-3-oxopropyl)piperazin-1-yl)isoxazol-5-yl)-3-methylbutanoyl)-N-((S)-1-(4-(4-methylthiazol-5-yl)phenyl)ethyl)pyrrolidine-2-carboxamide], in experiment [1], the Dmax is more than 75% and the DC50 is more than 100 nM. Moreover, in experiment [2], the “BRM HiBit Degradation Maximum (%)” value is given as “A (“A” indicates maximum degradation ≥ 75%)” and the DC50 is more than 100 nM.
